Read-outs that look alike come from different tables or passages of the source.
Experiments:
non-human primate PBMCs = assay: Cytokine secretion by non-human primate PBMCs (LegendPlex); type: cell-based, cynomolgus macaques
Experimental: Non-human primate PBMC hyperactivation. Whole blood from cynomolgus macaques was diluted with an equal volume of PBS. A solution of 90% Ficoll-Paque PLUS and 10% RPMI was made, and diluted whole blood was overlayed on top of the diluted Ficoll. Cells were centrifuged at 1000 rcf for 30 minutes at room temperature with no brakes. The buffy coat layer was collected and washed twice with PBS. If red blood cell contamination was present, cells were incubated in ACK lysis buffer for 2 minutes before being washed with PBS to remove lysed red blood cells.
Isolated PBMC were plated at 1×10^6 cells/well and cultured with or without hyperactivating stimuli. After 2 days incubation, cells were assessed for viability, and cell culture supernatant was used to measure cytokine output. Commercially available kits such as Biolegend LegendPlex kits were used as directed by manufacturer's protocol to quantify cytokines of interest.
PBMC were obtained from 13 cynomolgus macaques. Each activation condition was tested in triplicate, and the mean value of the triplicate is graphed for the animal sample. Repeated measures one-way ANOVA was used to test for statistical significance followed by Dunnett's multiple comparisons test.

human moDC = assay: Viability of human moDC with surfactant formulations of 22:0 Lyso PC; type: cell-based; conditions: solvent evaporation method with KP407, filtered, target 82.5 uM + R848
Experimental: Formulation of 22:0 Lyso PC with poloxamers. […] 22:0 Lyso PC was resuspended in the surfactant solution and agitated at 4° C. for an hour. Solutions were then brought to room temperature to form micelles. Using 10× concentrated PBS, salts were added to the solution to stabilize molecular interactions and provide physiologically relevant osmolarity. Lipid solutions were either left unfiltered or filtered through a pore size of 0.45 um to remove insoluble lipid flakes. Lipids were further diluted and added onto human moDC cell cultures along with 1 ug/mL R848. Targeted lipid concentrations were based on the scenario where the lipid is fully bio-available prior to filtration. However, filtration of insoluble lipid reduces the bio-available supply of lipid. Thus, IL-1beta as a measure of hyperactivity can be used as an indicator of 22:0 Lyso PC incorporation into micelles and thus into solution. One day after hyperactivation, cell culture supernatants are collected to measure cytokine secretion, and cells are used to measure viability via Cell Titer-Glo.
Salts are added to the solution to stabilize the molecular interactions and bring the solution to a physiologically relevant osmolarity. The solutions are then either left unfiltered or filtered through a pore size of 0.45 um to remove insoluble lipid flakes or particle aggregates. […]

[1] = PAMP screen: viability of human moDCs with PRR agonist and 22:0 Lyso PC; type: cell-based; conditions: human, human monocyte-derived dendritic cells (moDCs), No PAMP, 20 μM 22:0 Lyso PC alone, human moDCs, read-out: Relative Viability (%) ± SD
Experimental: Pathogen-Associated Molecular Pattern (PAMP) Screen. Innate immune signaling pathway agonists were purchased from Invivogen. Lyophilized stocks were reconstituted and stored according to manufacturer's instructions and at recommended concentrations. […] Innate immune signaling agonists were diluted in R10 media to the manufacturer's recommended working concentration and then added onto cells. 22:0 Lyso PC was then reconstituted from a lyophilized stock in R10 and then further diluted. The lipid was added onto cells at a final concentration of 20 μM. Cells were incubated for 2 days, then cultures were collected for endpoint analyses.
Quantification of Cell Viability.

[2] = 82.5 uM lipid + R848 vs R848 alone, 2 days

CCCCCCCCCCCCCCCCCCCCCC(=O)OC[C@@H](O)COP(=O)([O-])OCC[N+](C)(C)C [22:0 LYSO PC, 1-behenoyl-2-hydroxy-sn-glycero-3-phosphocholine]
cytokine fold changes relative to R848 alone (in words) (non-human primate PBMCs; 41.3 uM lipid + R848): not as markedly increased | IL-1beta output (in words) (non-human primate PBMCs; 82.5 uM lipid + R848 1 μg/mL vs R848 alone, 2 days): increased the IL-1beta output | IFN-beta secretion (in words) (non-human primate PBMCs; [2]): increased | IFN-gamma secretion (in words) (non-human primate PBMCs; [2]): significantly increased | IL-8 secretion (in words) (non-human primate PBMCs; [2]): increased | IL-17a secretion (in words) (non-human primate PBMCs; [2]): increased | IL-23 secretion (in words) (non-human primate PBMCs; [2]): increased | reduction of cell viability (human moDC): approximately 25% | viability at 2 days, 20 μM ([1]; Table 1-7, 10 donors): 120% | viability at 2 days, 20 μM ([1]; Table 1-8): 120%
